Measured values: patent US8119660B2, “Small-molecule inhibitors of the androgen receptor” (The Regents of the University of California, priority 2007, dated 2012)
Counter-ions that a name gives are not always drawn.

Experiments:
[1] = system: endogenous AR-regulated gene expression, LNCaP cells; test: qRT-PCR of androgen-responsive genes in LNCaP cells; assay type: cell-based, human; conditions: No DHT = 1, 3 nM DHT alone or with 1 uM BIC, 100 nM PP or 100 nM HH
Description: (§1) LAPC4 and LNCaP cells were grown in the presence or absence of 3 nM DHT in charcoal-stripped media, with or without the inhibitors. RNA was harvested using an RNAeasy kit (Qiagen) and reverse transcribed (MMLV-RT, Invitrogen). Real-time PCR was carried out on a 7300 Real Time PCR System (Applied Biosystems) using SYBR green as the detecting dye and Rox as the reference dye. The androgen responsive genes kalikrein 3, or PSA (KLK3) [Cleutjens, K. B., et al., Two androgen response regions cooperate in steroid hormone regulated activity of the prostate-specific antigen promoter. J Biol Chem, 1996. 271(11): p. 6379-88; Nelson, P. S., et al., The program of androgen-responsive genes in neoplastic prostate epithelium. Proc Natl Acad Sci USA, 2002. 99(18): p. 11890-5), metalloproteinase 16 (MMP16) (Nelson, P. S., et al., The program of androgen-responsive genes in neoplastic prostate epithelium. Proc Natl Acad Sci USA, 2002. 99(18): p. 11890-5), transmembrane protease serine 2 (TMPRSS2) (Nelson, P. S., et al., The program of androgen-responsive genes in neoplastic prostate epithelium. Proc Natl Acad Sci USA, 2002. 99(18): p. 11890-5; […] Vaarala, M. H., et al., Expression of transmembrane serine protease TMPRSS2 in mouse and human tissues. J Pathol, 2001. 193(1): p. 134-40), FK506-binding immunophilin 51 (FKBP51) (Nelson, P. S., et al., The program of androgen-responsive genes in neoplastic prostate epithelium. Proc Natl Acad Sci USA, 2002. 99(18): p. 11890-5; Amler, L. C., et al., Dysregulated expression of androgen-responsive and nonresponsive genes in the androgen-independent prostate cancer xenograft model CWR22-R1. Cancer Res, 2000. 60(21): p. 6134-41; Velasco, A. M., et al., Identification and validation of novel androgen-regulated genes in prostate cancer. Endocrinology, 2004. 145(8): p. 3913-24; Magee, J. A., et al., Direct, androgen receptor-mediated regulation of the FKBP5 gene via a distal enhancer element. Endocrinology, 2006. 147(1): p. 590-8), G-protein coupled receptor RDC1 homolog, or chemokine orphan receptor 1 (RDC-1) (Nelson, P. S., et al., The program of androgen-responsive genes in neoplastic prostate epithelium. Proc Natl Acad Sci USA, 2002. 99(18): p. 11890-5), NK homeobox family member 3 (Nk×3.1) (Nelson, P. S., et al., The program of androgen-responsive genes in neoplastic prostate epithelium. Proc Natl Acad Sci USA, 2002. 99(18): p. 11890-5; Bieberich, C. J., et al., Prostate-specific and androgen-dependent expression of a novel homeobox gene. J Biol Chem, 1996. 271(50): p. 31779-82; […]) were all normalized to the transcription of the housekeeping ribosomal gene (RPL19). All samples were done in triplicate and separately normalized.

[2] = system: endogenous AR-regulated gene expression, LAPC4 cells; test: qRT-PCR of androgen-responsive genes in LAPC4 cells; assay type: cell-based, human; conditions: No DHT = 1, 3 nM DHT alone or with 1 uM BIC, 100 nM PP or 100 nM HH
Description: as §1

[3] = Pharmacokinetics in mice, drug levels by mass spectrometry; assay type: in vivo; conditions: for concentration at […]: 0.25 hr
Source text: Serum samples were obtained at fixed time intervals, and the drug levels determined by mass spectrometry.

[4] = system: HEK293 cells; test: Cell proliferation (DNA content, DAPI), HEK293 control; assay type: cell-based; conditions: HEK293, seven days; PP 100 nM, HH 100 nM, BiC 1 μM
Source text: LN-AR cells were created by retroviral infection of a high-expressing AR vector into LNCaP cells, and proliferate independent of androgen in cell culture, unlike their parental line (Chen, C. D., et al., Molecular determinants of resistance to antiandrogen therapy. Nat Med, 2004. 10(1): p. 33-9). HEK293 cells were used as a control. Cells were transferred to charcoal-stripped media two days before they were split and plated in quadruplicate at a density of approximately 20,000 cells/well in 48-well plates. […] Media were changed every day, using a single preparation to ensure consistent compound concentrations. Proliferation was determined by measuring the DNA content of the cells in each well. Each day, the cells in four wells were fixed in 100% cold methanol, followed by staining for 5 min at RT with 0.2 ng/mL 4′,6-diamidino-2-phenylindole (DAPI) in PBS. The cells were washed once in PBS, then read on a fluorescence plate reader using 365/439 excitation/emission wavelengths. LAPC4 and LNCaP cells proliferated to a much greater degree in the presence of DHT, while LN-AR cells proliferated in the presence and absence of DHT.

Cc1nccc2c1[nH]c1cc(O)ccc12 [HH, harmol hydrochloride]
FKBP51 transcription (normalized to RPL19) [1]: 1.90 | KLK3 transcription (normalized to RPL19) [1]: 1.46 | MMP16 transcription (normalized to RPL19), androgen-repressed gene [1]: 1.02 | Nkx3.1 transcription (normalized to RPL19) [1]: 1.28 | RDC1 transcription (normalized to RPL19), androgen-repressed gene [1]: 1.22 | TMPRSS2 transcription (normalized to RPL19) [1]: 1.22 | FKBP51 transcription (normalized to RPL19) [2]: 11.96 | KLK3 transcription (normalized to RPL19) [2]: 1.64 | MMP16 transcription (normalized to RPL19), androgen-repressed gene [2]: 4.74 | Nkx3.1 transcription (normalized to RPL19) [2]: 1.55 | RDC1 transcription (normalized to RPL19), androgen-repressed gene [2]: 2.88 | TMPRSS2 transcription (normalized to RPL19) [2]: 1.86 | concentration at […] ([3]; FVB, mouse, plasma, mice, IP, 5 mg/kg single dose): 32.3 ng/mL | concentration at 1 h ([3]; FVB, mouse, plasma, mice, IP, 5 mg/kg single dose, 1 hr): 5 ng/mL | concentration at […] ([3]; FVB, mouse, plasma, mice, PO, 5 mg/kg single dose): 6.7 ng/mL | Clearance / half-life in words ([3]; Wild-type FVB mice, single intraperitoneal injection): rapidly cleared | Non-specific growth inhibition of control cells [4]: Neither compound exhibited non-specific growth inhibition
